Laboratory results: patent US11684597B2, “Administration of tailored feedstock to increase nitro-containing amphenicol antibiotic susceptibility” (U.S. Army Research Laboratory, priority 2019, dated 2023)

System: Clostridium acetobutylicum strain ATCC 824
Test: antibiotic sensitivity test (MIC, OD600 in 96-well plate, anaerobic)
Assay type: cell-based
Conditions: for MIC (final concentration of chloramphenicol): after 24 h of growth
Protocol: Bacterial culture conditions and strains have been previously published. All strains and cultures were maintained or grown in an atmosphere of 5.0% H2, 5.0% CO2, and 90.0% N2. Clostridium acetobutylicum strain ATCC 824 was obtained from ATCC and cultured using company protocol at 37° C. into Clostridial growth medium or CGM containing 0.75 g KH2PO4, 0.75 g K2HPO4, 1.0 g NaCl, 0.017 g MnSO4.5H2O, 0.70 g MgSO4.7H2O, 0.01 g FeSO4.7H2O, 2.0 g 1-asparagine, 5.0 g yeast extract, 2.0 g (NH4)2SO4, and 0.5% final concentration of desired carbohydrate—D-glucose, D-galacturonic acid, D-gluconic acid—at pH 6.5. Active cultures from initial growth stock were added to potato glucose medium to be maintained and stored as a spore solution. Potato glucose medium or PGM contains per liter of H2O—150 g grated fresh potato, 10 g D-glucose, 0.5 g (NH4)SO4, and 3 g CaCO3. The medium was boiled for 1 hour and strained through gauze before sterilization and use for culture. Spore solution was activated for culturing through a heat shock at 80° C. for 9 minutes. Shocked spore solution was added to CGM containing the feed stock of choice and grown to late log of 0.8 at optical density of 600 nm (OD600) at 37° C. Theses cultures were then used to perform antibiotic sensitivity experiments.
The protocol for antibiotic sensitivity test was performed as follows in anaerobic conditions: 200 μL of CGM medium containing either 0.5% D-galacturonate or D-glucose was aliquoted into a sterile Costar® 96-well polystyrene flat bottom plate in triplicate per test condition. Chloroamphenicol was dissolved in ethanol at different concentrations. Each chloroamphenicol concentration was added to each well in triplicate and considered a test condition. Test conditions included addition of 1 μL of ethanol, 1 of sterile water, 1 μL 0.1 mg mL^−1, 1 μL 0.25 mg mL^−1, 1 μL 0.5 mg mL^−1, 1 μL 1 mg mL^−1, 1 μL 2.5 mg mL^−1, 1 μL 5 mg mL^−1, 1 μL 10 mg mL^−1, 1 μL 20 mg mL^−1, and 1 μL 10 mg mL^−1. […] The optical density of the cultures in the wells were measured at 600 nm via a commercially available plate reader. […]

## O=C(N[C@H](CO)[C@H](O)c1ccc([N+](=O)[O-])cc1)C(Cl)Cl [chloramphenicol]
C. acetobutylicum grown in CGM with 0.5% D-galacturonate (galacturonic acid) as feedstock
  MIC (final concentration of chloramphenicol): 2.4 µg/mL
C. acetobutylicum grown in CGM with 0.5% D-glucose as feedstock
  MIC (final concentration of chloramphenicol): 23.7 µg/mL
C. acetobutylicum, in vitro, galacturonate vs glucose
  increase of antibiotic susceptibility with oxidized feed stock compared to glucose as feed stock: 10 fold
